How the values were obtained:
[1] = test system: compound 48/80-induced lethality; test: Protection of rats from compound 48/80-induced lethality; type: in vivo, Male rats of an inbred Wistar strain; conditions: for ED50: Rattus norvegicus, 4 h, read-out: compound 48/80 lethality test rats-ED50
Procedure: Protection of rats from compound 48/80-induced lethality
The protection from compound 48/80-induced lethal circulatory collapse appears to be a simple way of evaluating quantitatively the antihistaminic activity of test compounds. Male rats of an inbred Wistar strain, weighing 240-260 g were used in the experiment. After overnight starvation the rats were transferred to conditioned laboratories (temp.=21±1° C., relative humidity-65±5%).
The rats were treated subcutaneously or orally with a test compound or with the solvent (NaCl solution, 0.9%). […] Survival after 4 hours is therefore considered to be a safe criterion of a protective effect of drug administration.
The ED50 -values of the compounds of formula (I) and the intermediates of formula (XVIII) are listed in the first column of table 1 and table 2. Said ED50 -values are the values in mg/kg body weight at which the tested compounds protect 50% of the tested animals against compound 48/80-induced lethality.

[2] = test system: serotonin; compound 48/80-induced gastric lesions; test: Antagonistic activity on the effects of serotonin in the gastric lesion test (lesions induced by compound 48/80); type: in vivo, Male rats of a Wistar inbred strain; conditions: for ED50: Rattus norvegicus, po, read-out: gastric lesion test ED50
Procedure: Antagonistic activity on the effects of serotonin in the gastric lesion test
Male rats of a Wistar inbred strain, weighing 220-250 g, were starved overnight, water being available ad libitum. The test compounds were administered orally as a solution or as a suspension in aqueous medium. A control rat and a "blank" rat received the test compound. One hour later 5-[4-(diphenylmethyl)-1-piperazinylmethyl]-1-methyl-1H-benzimidazole-2-methanol was administered subcutaneously to all rats at the dose of 2.5 mg/kg.
Four hours after the intravenous injection of compound 48/80, the rats were decapitated and the stomachs were removed. Subsequently the stomachs were inspected for distension and contents (blood, fluid, food) and thoroughly rinsed. The macroscopic lesions were scored from 0 to +++, 0 corresponding to complete absence of visible lesions and the highest score corresponding to reddish rough patches covering more than half the glandular area.

Row | Molecule | ED50 [1] [mg/kg] | ED50 [2] [mg/kg] | compound 48/80 lethality test rats-ED50 ([1]; rats, subcutaneous or oral, 1 h before compound 48/80 0.5 mg/kg i.v., 50% protected, survival after 4 h) [mg/kg body weight] | gastric lesion test ED50 ([2]; rats, oral, 2 h before compound 48/80 1 mg/kg i.v., stomach distension and glandular lesions completely absent in 50% of rats) [mg/kg body weight]
1 | COc1ccc2c(c1)nc(NC1CCN(CCNc3ncccn3)CC1)n2Cc1ccc(F)cc1 | 1.25 | 2.5 |  | 
2 | Oc1ccc2c(c1)nc(NC1CCN(CCNc3ncccn3)CC1)n2Cc1ccc(F)cc1 | 0.16 | 2.5 |  | 
3 | COc1ccc2nc(NC3CCN(CCNc4ncccn4)CC3)n(Cc3ccc(F)cc3)c2c1 | 1.25 | 2.5 |  | 
4 | Fc1ccc(Cn2c(NC3CCN(CCNc4ncnc5ccccc45)CC3)nc3ccccc32)cc1 | 0.08 | 2.5 |  | 
5 | 3[(4-fluorophenyl)methyl]-N-[1-[2-[(2-pyridinyl)amino]ethyl]-4-piperidinyl]-3H-imidazo[4,5-b]pyridin-2-amine [Compound 23] |  |  | 0.04 | 0.08
6 | OCCN1CCC(Nc2nc3cnccc3n2Cc2ccc(F)cc2)CC1 [CH2 CH2 OH 4-FC6 H4 CH2 -- 3 base] | 0.31 |  |  | 
7 | OCCN1CCC(Nc2nc3ncccc3n2Cc2ccc(F)cc2)CC1 [CH2 CH2 OH 4-FC6 H4 CH2 -- 4 base] | 0.01 | 0.63 |  | 
8 | Fc1ccc(Cn2c(NC3CCN(CCNc4ncccn4)CC3)nc3ccccc32)cc1 [Compound 1, 1-[(4-fluorophenyl)methyl]-N-[1-[2-[(2-pyrimidinyl)amino]ethyl]-4-piperidinyl]-1H-benzimidazol-2-amine] | 0.16 | 0.63 |  | 
9 | Fc1ccc(Cn2c(NC3CCN(CCCCNc4ncccn4)CC3)nc3ccccc32)cc1 [Compound 2] | 0.16 | 2.5 |  | 
10 | Fc1ccc(Cn2c(NC3CCN(CCCNc4ncccn4)CC3)nc3ccccc32)cc1 [Compound 4] | 0.16 |  |  | 
11 | Fc1ccc(Cn2c(NC3CCN(CCNc4cc(Cl)ncn4)CC3)nc3ccccc32)cc1 [Compound 5] | 0.31 |  |  | 
12 | Fc1ccc(Cn2c(NC3CCN(C4CCN(c5ncccn5)CC4)CC3)nc3ccccc32)cc1 [Compound 6] | 1.25 |  |  | 
13 | CC(CN1CCC(Nc2nc3ccccc3n2Cc2ccc(F)cc2)CC1)Nc1ncccn1 (stereo not drawn) [Compound 7] | 0.63 | 0.63 |  | 
14 | Fc1ccc(Cn2c(NC3CCN(CCN(Cc4ccccc4)c4ncccn4)CC3)nc3ccccc32)cc1 [Compound 8] | 0.63 | 0.63 |  | 
15 | CN(CCN1CCC(Nc2nc3ccccc3n2Cc2ccc(F)cc2)CC1)c1ncccn1 [Compound 10] | 0.08 | 0.63 |  | 
16 | O=[N+]([O-])c1cccnc1N1CCC(N2CCC(Nc3nc4ccccc4n3Cc3ccc(F)cc3)CC2)CC1 [Compound 11] | 0.63 |  |  | 
17 | Fc1ccc(Cn2c(NC3CCN(C4CCCN(c5ncccn5)C4)CC3)nc3ccccc32)cc1 (stereo not drawn) [Compound 12] | 1.25 | 2.5 |  | 
18 | O=[N+]([O-])c1ccc(NCCN2CCC(Nc3nc4ccccc4n3Cc3ccc(F)cc3)CC2)nc1 [Compound 13] | 0.31 | 2.5 |  | 
19 | O=[N+]([O-])c1cc[n+]([O-])cc1NCCN1CCC(Nc2nc3ccccc3n2Cc2ccc(F)cc2)CC1 [Compound 14] | 0.04 | 1.25 |  | 
20 | c1ccc(Cn2c(NC3CCN(CCNc4ncccn4)CC3)nc3ccccc32)nc1 [Compound 15] | 0.04 | 0.63 |  | 

Row | Molecule | ED50 [1] [mg/kg] | ED50 [2] [mg/kg] | compound 48/80 lethality test rats-ED50 ([1]; rats, subcutaneous or oral, 1 h before compound 48/80 0.5 mg/kg i.v., 50% protected, survival after 4 h) [mg/kg body weight] | gastric lesion test ED50 ([2]; rats, oral, 2 h before compound 48/80 1 mg/kg i.v., stomach distension and glandular lesions completely absent in 50% of rats) [mg/kg body weight]
21 | c1cnc(NCCN2CCC(Nc3nc4ccccc4n3Cc3cccnc3)CC2)nc1 [Compound 17] | 1.25 |  |  | 
22 | c1cnc(NCCN2CCC(Nc3nc4ccccc4n3Cc3cnccn3)CC2)nc1 [Compound 18] | 0.01 | 0.63 |  | 
23 | c1cnc(NCCN2CCC(Nc3nc4ccccc4n3Cc3cccs3)CC2)nc1 [Compound 19] | 0.02 | 2.5 |  | 
24 | c1cnc(NCCN2CCC(Nc3nc4ccccc4n3Cc3ccoc3)CC2)nc1 [Compound 20] | 0.04 | 0.63 |  | 
25 | Fc1ccc(Cn2c(NC3CCN(CCNc4ncccn4)CC3)nc3cnccc32)cc1 [Compound 26, 1[(4-fluorophenyl)methyl]-N-[1-[2-(2-pyrimidinylamino]ethyl]-4-piperidinyl]1H-imidazo[4,5-c]pyridin-2-amine] | 0.08 |  |  | 
26 | Fc1ccc(Cn2c(NC3CCN(CCNc4ncccn4)CC3)nc3ccncc32)cc1.O=C(O)/C=C/C(=O)O.O=C(O)/C=C/C(=O)O [Compound 29, 3-[(4-fluorophenyl)methyl]-N-[1-[2-[(2-pyrimidinyl)amino]ethyl]-4-piperidinyl]-3H-imidazo[4,5-c]pyridin-2-amine (E)-2-butenedioate (1:2)] | 0.16 |  |  | 
27 | Cc1cc(NCCN2CCC(Nc3nc4ccccc4n3Cc3ccc(F)cc3)CC2)nc(N)n1 [Compound 35] | 0.31 |  |  | 
28 | Cc1nc2ccccc2nc1NCCN1CCC(Nc2nc3ccccc3n2Cc2ccc(F)cc2)CC1 [Compound 41] | 1.25 |  |  | 
29 | Fc1ccc(Cn2c(NC3CCN(CCNc4ccc5ccccc5n4)CC3)nc3ccccc32)cc1 [Compound 44] | 0.31 |  |  | 
30 | Cc1cc(Cl)nc(NCCN2CCC(Nc3nc4ccccc4n3Cc3ccc(F)cc3)CC2)n1 [Compound 62, N-[1-[2-[(4-chloro-6-methyl-2-pyrimidinyl)amino]ethyl]-4-piperidinyl]-1-[(4-fluorophenyl)methyl]-1H-benzimidazol-2-amine] | 0.63 |  |  | 
31 | Brc1ccc(OCCN2CCC(Nc3nc4ccccc4n3Cc3ccco3)CC2)nc1 [Compound 78, N-[1-[2-[(5-bromo-2-pyridinyl)oxy]ethyl]-4-piperidinyl]-1-(2-furanylmethyl)-1H-benzimidazol-2-amine] | 0.31 |  |  | 
32 | Cc1nc2ccccc2nc1OCCN1CCC(Nc2nc3ccccc3n2Cc2ccc(F)cc2)CC1 [Compound 80, 1-[(4-fluorophenyl)methyl]-N-[1-[2-[(3-methyl-2-quinoxalinyl)oxy]ethyl]-4-piperidinyl]-1H-benzimidazol-2-amine] | 2.5 |  |  | 
33 | Fc1ccc(Cn2c(NC3CCN(CCOc4ccc(Br)cn4)CC3)nc3ccccc32)cc1 [Compound 82, N-[1-[2-[(5-bromo-2-pyridinyl)oxy]ethyl]-4-piperidinyl]-1-[(4-fluorophenyl)methyl]-1H-benzimidazol-2-amine] | 0.16 |  |  | 
34 | O=c1cc(Cc2ccccc2)[nH]c(NCCN2CCC(Nc3nc4ccccc4n3Cc3ccc(F)cc3)CC2)n1 [Compound 89, 2-[[2-[4-[[1-[(4-fluorophenyl)methyl]-1H-benzimidazol-2-yl]amino]-1-piperidinyl]ethyl]amino]-6-(phenylmethyl)-4-(1H)-pyrimidinone] | 0.63 |  |  | 
35 | COc1cc(NCCN2CCC(Nc3nc4ccccc4n3Cc3ccc(F)cc3)CC2)ncn1 [Compound 98, 1-[(4-fluorophenyl)methyl]-N-[1-[2-[(6-methoxy-4-pyrimidinyl)amino]ethyl]-4-piperidinyl]-1H-benzimidazol-2-amine] | 0.16 |  |  | 
36 | Fc1ccc(Cn2c(NC3CCN(CCc4cnccn4)CC3)nc3ccccc32)cc1 [Compound 101, 1-(4-fluorophenylmethyl)-N-[1-[2-(2-pyrazinyl)ethyl]-4-piperidinyl]-1H-benzimidazol-2-amine] | 0.31 |  |  | 
37 | O=C(NCCN1CCC(Nc2nc3ccccc3n2Cc2ccc(F)cc2)CC1)c1cccnc1Cl [Compound 115, 2-chloro-N-[2-[4-[[1-[(4-fluorophenyl)methyl]-1H-benzimidazol-2-yl]amino]-1-piperidinyl]ethyl]-3-pyridinecarboxamide (E)-2-butenedioate (1:2) hemihydrate] | 0.16 |  |  | 
38 | N#CCN1CCC(Nc2nc3cnccc3n2Cc2ccc(F)cc2)CC1 [Intermediate 81] | 0.63 |  |  | 
39 | NCCN1CCC(Nc2nc3cnccc3n2Cc2ccc(F)cc2)CC1 [Intermediate 111] | 0.16 |  |  | 

— patent publication US4556660A, “N-(Bicyclic heterocyclyl)-4-piperidinamines” (Janssen Pharmaceutica N.V., priority 1983, dated 1985)
